The nature of the data set: physchem. The following applies: octanol/water, pH 7.4.

As usually defined, the logD is the decadic logarithm of the distribution of all forms, ionised or not, between an organic phase and buffer at a given pH. Read a low logD as a more hydrophilic compound.

Description: 1-octanol/aqueous buffer solution partition coefficient, log D of the compound at pH 7.4 by UV-HPLC method

The compound `CCC(NC(=O)N1CC(=O)Nc2cccnc21)c1ccc(N2CCC2)cc1` (configuration not stated) came in with a logD of 3.13. The compound `COCC(NC(=O)N1CC(=O)Nc2cc(OC)cnc21)c1ccc(C(F)(F)F)cc1` (stereo in doubt; 34) showed a logD of 3.03.
